Assays:
BesD [1] = target: T1, BesD (Streptantibioticus cattleyicolor, UniProt G8XHD5); test: biochemical
T1 sequence (G8XHD5 1-242): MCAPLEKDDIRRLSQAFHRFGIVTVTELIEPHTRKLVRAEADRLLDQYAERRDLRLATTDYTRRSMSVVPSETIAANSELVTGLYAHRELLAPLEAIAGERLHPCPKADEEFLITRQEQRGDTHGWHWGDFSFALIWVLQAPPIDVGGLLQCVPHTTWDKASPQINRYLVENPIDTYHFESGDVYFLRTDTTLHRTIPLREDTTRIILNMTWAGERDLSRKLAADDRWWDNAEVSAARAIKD

BesD [2] = target: T1, BesD; test: UV-Vis MLCT shift; type: biochemical; conditions: BesD-Fe-2OG complex with lysine; anaerobic UV-Vis
BesD [3] = target: T1, BesD; test: UV-Vis MLCT shift; type: biochemical; conditions: BesD-Fe-2OG complex with lysine; anaerobic UV-Vis; remark: listed apart in the source
BesD [4] = target: T1, BesD; test: UV-Vis MLCT band; type: binding; conditions: Fe(II) added; co-substrate

`NCCCC[C@H](N)C(=O)O` [lysine] showed a Kd (BesD [1]) of 50 µM.

In the case of `Br` [bromide], the “UV-Vis MLCT shift; UPLC-MS/MS of bromination product” value (BesD [2]) is reported as “perturbations of the MLCT band with azide and bromide are minimal until the addition of lysine”.

For `[N-]=[N+]=[N-]` [azide], the “UV-Vis MLCT shift; UPLC-MS/MS of azidation product” value (BesD [3]) was “perturbations of the MLCT band with azide and bromide are minimal until the addition of lysine”.

In the case of `O=C(O)CCC(=O)C(=O)O` [2-oxoglutarate], the “UV-Vis MLCT band” value (BesD [4]) is reported as “Upon the addition of Fe^II and 2OG to BesD, an MLCT band forms”.
